Laboratory results reported in PMC2919388, “A Screening Pipeline for Antiparasitic Agents Targeting Cryptosporidium Inosine Monophosphate Dehydrogenase” (PLoS Neglected Tropical Diseases, 2010).
Read-outs that look alike come from different tables or passages of the source.

How the values were obtained:
wild-type T. gondii = assay: Fluorescent T. gondii growth assay, wild-type strain; type: cell-based, Toxoplasma gondii; settings: wild-type T. gondii, no added xanthine, read-out: T. gondii model EC50 WT
Text: (§1) Wild-type T. gondii and T. gondii-ΔHXGPRT parasites were transfected with plasmid ptubYFPYFsagCAT [37] which drives constitutive cytoplasmic expression of two copies of the yellow fluorescent protein. Similarly, plasmid pCTR2T [38] was transfected into T. gondii-CpIMPDH resulting in constitutive cytoplasmic expression of a tandem of the tomato variant of the red fluorescent protein [39]. Fluorescent parasites were selected and cloned by cell sorting using a MoFlo Legacy instrument (Beckman Coulter, Inc). Growth of fluorescent clones was monitored in 96 well plates as previously described. Briefly, fluorescence was read daily with a SpectraMax M22/M2e (Molecular Devices) plate reader (Ex 485, Em 530) for 6–7 days. For each of the three fluorescent T. gondii clones percent growth inhibition was calculated on a day within the exponential phase of growth for the purpose of determining an IC50 for each compound.
(§2) Supplementary file pntd.0000794.s002.tif: Figure S2 Obtaining an EC50 value for T. gondii growth. Fluorescent T. gondii parasites are seeded into 96-well plates and spiked with test compound. Fluorescence is measured daily with a SpectraMax M22/M2e (Molecular Devices) plate reader for 6–7 days. The fluorescence readings on a day during the exponential phase of the growth curve, for example day 4 in A, are used to calculated percent growth inhibition. These values are fitted using the 4 parameter model y = D+(A–D)/(1+(x/C)^B) where D is the minimum value, A is the maximum value, C is the EC50 and B is the Hill coefficient, using the SoftMax Pro v5 software, as illustrated in B. The absolute EC50 is recorded at the x intercept where y = 50. (0.33 MB TIF) Click here for additional data file.

T. gondii-CpIMPDH = assay: Fluorescent T. gondii growth assay, CpIMPDH reporter strain; type: cell-based, Toxoplasma gondii; settings: for Selectivity = EC50(T. gondii-wild-type)/EC50(T. gondii-CpIMPDH): Figure 5 Sel
Text: as §1
To facilitate screening of antiparasitic activity, we constructed a T. gondii reporter parasite that mirrors the Cryptosporidium purine metabolism. Figure 1 summarizes the main differences between the two parasites in this pathway. We started with a T. gondii knockout mutant that, like C. parvum, lacks the ability to salvage xanthine and guanine via HXGPRT (T. gondii-ΔHXGPRT [41]) and introduced the CpIMPDH gene under the control of a T. gondii promoter. Next the native T. gondii IMPDH gene was disrupted by replacing the entire coding sequence with a chloramphenicol acetyl transferase cassette using a new cosmid-based gene targeting approach. […] This manipulation created strain T. gondii-CpIMPDH-ΔHXGPRT-ΔTgIMPDH. Lastly, we introduced a fluorescent protein cassette and isolated stable transgenic parasites by cell sorting. The resulting strain is referred to as T. gondii-CpIMPDH. […] We similarly engineered fluorescent versions of wild-type T. gondii and T. gondii-ΔHXGPRT to serve as controls.
as §2

HCT-8 cells = assay: Fluorescent HCT-8 host cell growth assay; type: cell-based, human; settings: for activity at 25 µM: Homo sapiens, HCT-8, compound at 25 μM, relative to DMSO alone; for effect on host cell (HCT-8) growth: in words; for inhibition of HCT-8 cell growth: at 12.5 µM and 25 µM
Procedure: HCT-8 cells were transfected with plasmid pmaxGFP (Amaxa) using Lipofectamine (Invitrogen). Fluorescent lines were then selected and cloned using cell sorting. Confluent monolayers of pmaxGFP expressing cells were harvested from T75 flasks and passed through a 40 µm cell strainer. Cells were seeded at 4000 cells per well into black, optical quality, thin bottom, 96-well plates. All test compounds were diluted in DMSO as described. The fluorescence was read daily with a SpectraMax M22/M2e (Molecular Devices) plate reader (Ex 485, Em 530) for 6–7 days. Percent inhibition was calculated on a day within the exponential phase of growth.

C. parvum = assay: High-content imaging C. parvum growth assay (FITC-VVL); type: cell-based, Cryptosporidium parvum; settings: Cryptosporidium parvum, HCT-8, 48 h, growth in HCT-8 cells, 48 hours
Procedure: The human ileocecal adenocarcinoma epithelial cell line, HCT-8, was used to support C. parvum infection in vitro. HCT-8 cells were maintained in RPMI-1640 (Hyclone) supplemented with 10% FBS, 1 mM sodium pyruvate, 50 U/m penicillin, 50 µg/ml streptomycin, and amphotericin B. Cryptosporidium parvum oocysts were a kind gift from either Dr. Mead (Emory University) or Dr. Kissinger (University of Georgia). HCT-8 cells (2×10^5) were seeded into black, optical quality, thin bottom, 96-well plates (DB Falcon) to achieve a 70% confluent monolayer on the day of infection. To facilitate oocyst excystation, a procedure described by Gut et al., was followed. Briefly, oocysts were washed twice with 1 ml of PBS (pH 7.2), incubated for 10 minutes at 37°C in 1 ml 10 mM of HCl and then incubated for a further 10 minutes in 0.2 ml of 200 µM sodium taurocholate at 15°C [40]. This oocyst suspension was diluted directly with DMEM (Hyclone) supplemented with 2% FBS, 50 U/ml penicillin, 50 µg/ml streptomycin, amphotericin B and 0.2 mM L-glutamine (infection medium) to inoculate host cell monolayers at 5×10^5 oocysts per well. Host cell monolayers were incubated for 3 hours at 37°C prior to removal of unexcysted oocysts by aspiration and PBS wash. Infection medium was then added to the monolayers and infection was allowed to progress for 48 hours.
The VVL IFA was performed in a 96-well format. Following 48 hours of culture C. parvum infected HCT-8 cells were washed with PBS and fixed with 0.2 ml/well of 3% paraformaldehyde/PBS, permeabilized with 0.25% Triton-X-100/PBS and blocked with 4% BSA/PBS. 0.1 ml of fluorescein (FITC)-conjugated VVL (Vector Labs 0.5 µg/ml) in 1% BSA/PBS was applied to wells and incubated for 45 minutes. The plates were washed twice with 200 µl/well of PBS. In the first wash DAPI was included at 0.1 µg/ml. Finally 200 µl/well of PBS was added to the plates prior to storage at 4°C protected from light.
Confocal images were acquired using a BD Biosciences Bioimager P435. The instrument was programmed to automatically change position and focus, capture montage images of 9–16, 40× fields per well, and then compress and save the image files. Object finding algorithms were developed for the recognition of FITC-VVL labelled C. parvum parasites and DAPI labelled host cell nuclei using Attovision Software (BD Biosciences). Briefly, to identify FITC-VVL labelled parasites, the object finding algorithm included, a flat field correction, a polygon shape setting, a 3×3 rolling ball filter, manual pixel intensity thresholding (100 min – 4095 max), and minimum and maximum object size cut-offs of 5 pixels and 350 pixels respectively. The algorithm optimised for finding DAPI labelled host cell nuclei also included flat field correction and polygon shape setting, but applied a 25×25 rolling ball filter which is more suitable for larger objects, an automated pixel intensity threshold, minimum and maximum object size cut-offs of 200 pixels and 4000 pixels respectively, and a watershed step with an erosion factor of 8 to aid in the separation of adjacent densely packed nuclei. Note that the intensity and area size cut off exclude detection of the much smaller parasite nuclei (the human genome is three hundred times larger than the C. parvum genome).
The object finding analysis steps described above recorded the number and area of objects per montage image. The output files along with a plate map file were then passed to an automated analysis pipeline (Pipeline Pilot Software, Accelrys) to calculate the mean number of parasites, the ratio of parasite number to host cell nuclei number, the mean area of parasites and host cell nuclei by well, and the percentage growth by treatment as compared to the no drug control. These analyses were exported in graphical format for each plate and the numerical values tabulated in html format. […]

CpIMPDH = CpIMPDH (Cryptosporidium parvum, UniProt Q8T6T2); settings: cited from earlier work
T. gondii-ΔHXGPRT = assay: Fluorescent T. gondii growth assay, ΔHXGPRT strain; type: cell-based; settings: Toxoplasma gondii, read-out: T. gondii model EC50 ΔHXGPRT, T. gondii-ΔHXGPRT
Text: as §1, §2

[1] = read-out: CpIMPDH Inhibition IC50 - BSA
[2] = Toxoplasma gondii, read-out: T. gondii model EC50 CpIMPDH, T. gondii-CpIMPDH, absence of xanthine

CpIMPDH, sequence (Q8T6T2 whole entry): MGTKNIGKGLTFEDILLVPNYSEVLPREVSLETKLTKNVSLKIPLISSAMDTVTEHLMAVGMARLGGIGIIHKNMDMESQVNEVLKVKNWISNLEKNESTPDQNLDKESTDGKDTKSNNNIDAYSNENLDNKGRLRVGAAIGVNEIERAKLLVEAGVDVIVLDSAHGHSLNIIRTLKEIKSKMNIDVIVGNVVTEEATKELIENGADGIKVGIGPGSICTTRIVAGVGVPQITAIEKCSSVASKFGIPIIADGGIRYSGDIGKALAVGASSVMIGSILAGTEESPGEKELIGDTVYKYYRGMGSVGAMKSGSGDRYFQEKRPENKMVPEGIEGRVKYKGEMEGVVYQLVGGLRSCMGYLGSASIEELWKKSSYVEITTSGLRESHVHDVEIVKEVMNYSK

| SMILES | EC50 (wild-type T. gondii; Toxoplasma gondii) | EC50 (wild-type T. gondii) | Selectivity = EC50(T. gondii-wild-type)/EC50(T. gondii-CpIMPDH) (T. gondii-CpIMPDH) | EC50 (T. gondii-CpIMPDH; read-out: T. gondii model EC50 CpIMPDH, T. gondii-CpIMPDH, absence of xanthine) | activity at 25 µM (HCT-8 cells) | effect on host cell (HCT-8) growth (HCT-8 cells) | EC50 (C. parvum) | IC50 (CpIMPDH; [1]) | EC50 (T. gondii-ΔHXGPRT) | EC50 (T. gondii-CpIMPDH; [2]) | IC50 (CpIMPDH; in the presence of BSA, values marked c, read-out: CpIMPDH Inhibition IC50 + BSA) | IC50 (CpIMPDH; without BSA, values marked c, read-out: CpIMPDH Inhibition IC50 - BSA) | selectivity for the T. gondii-CpIMPDH parasite over wild-type T. gondii (T. gondii-CpIMPDH) | inhibition of HCT-8 cell growth (HCT-8 cells) | IC50 (CpIMPDH; read-out: CpIMPDH Inhibition IC50 + BSA) |
| --- | --- | --- | --- | --- | --- | --- | --- | --- | --- | --- | --- | --- | --- | --- | --- |
| CC(Oc1ccc(Cl)c2ccccc12)c1cn(-c2ccc(Cl)cc2)nn1 (centres unmarked) [Compound A82] | 5 ± 2 µM | ≤ 10 µM | 0.9 | ≤ 10 µM | 108 ± 2% | do not inhibit host cell growth | 6 to 13 µM | 0.09 ± 0.03 µM |  |  |  |  |  |  |  |
| CC(Oc1ccnc2ccccc12)c1cn(-c2ccc(Cl)cc2)nn1 (centres unmarked) [Compound A89] | 4.9 ± 0.9 µM |  | 14 |  | 43 ± 2% |  | < 13 µM |  | 6 ± 2 µM | 0.4 ± 0.2 µM |  |  |  |  |  |
| CC(Oc1ccnc2ccccc12)c1cn(-c2ccc(Cl)c(Cl)c2)nn1 (centres unmarked) [Compound A90] | 5 ± 3 µM | ≤ 10 µM | 1.5 |  | 77 ± 5% | do not inhibit host cell growth | 6 to 13 µM |  |  |  |  |  |  |  |  |
| CC(Oc1ccnc2ccccc12)c1cn(-c2ccc(C#N)c(Cl)c2)nn1 (centres unmarked) [Compound A92] | 9 ± 2 µM |  | 1.6 |  | 47 ± 1% |  | 3 to 6 µM |  | 8 ± 4 µM | 5 ± 1 µM |  |  |  |  |  |
| C[C@@H](Oc1cncc2ccccc12)c1cn(-c2ccc(Cl)cc2)nn1 [Compound A98] | 2.8 ± 0.1 µM |  | > 12 |  | 65 ± 7% |  | 3 to 6 µM |  | 2.3 ± 0.6 µM | < 0.2 µM | 0.03 ± 0.001 µM | 0.009 ± 0.001 µM |  |  |  |
| CC(Oc1cc[n+]([O-])c2ccccc12)c1cn(-c2ccc(Cl)cc2)nn1 (centres unmarked) [Compound A100] | > 25 µM | ≥ 20 µM |  |  | 44 ± 10% |  | 12 to 25 µM | 0.03 ± 0.01 µM | ≥ 25 µM | 0.5 µM |  |  | ≥ 36 fold | inhibit HCT-8 cell growth significantly |  |
| CC(Oc1cccc2c1ccc[n+]2[O-])c1cn(-c2ccc(Cl)cc2)nn1 (centres unmarked) [Compound A102] | 23 ± 3 µM | ≥ 20 µM | 76 |  | 62% |  | 12 to 25 µM |  | 20 ± 5 µM | 0.3 ± 0.1 µM |  |  | ≥ 36 fold | inhibit HCT-8 cell growth significantly | 0.06 ± 0.02 µM |
